Laboratory results from the supplement of paper PMC4976141.

Test system: PC9
Test: cell count fold change with erlotinib, miRNA mimic vs non-targeting control (log2 ratio); higher = more drug-tolerant survivors than NTC
Settings: erlotinib 1 µM; 72 h drug + 72 h drug-free recovery; perturbation: miRNA mimic

First: AGCAGCAUUGUACAGGGCUAUCA
Second: UGGUUUACCGUCCCACAUACAU
The “cell count fold change with erlotinib” value of the first is lower: -0.458 for the first, 0.24 for the second.

First: CCCCCACAACCGCGCUUGACUAGCU
Second: CCUCUGAAAUUCAGUUCUUCAG
The “cell count fold change with erlotinib” value of the first is higher: -0.523 for the first, -0.736 for the second.

Going from UUCUCAAGGAGGUGUCGUUUAU to UACUCAGGAGAGUGGCAAUCAC, the “cell count fold change with erlotinib” value rises from -1.83 to -0.848.

Compared with UAAAGAGCCCUGUGGAGACA, UAGGCAGUGUCAUUAGCUGAUUG is lower in “cell count fold change with erlotinib” value: -1.03 for the first, -1.83 for the second.

Going from AGUUUUGCAGGUUUGCAUUUCA to AGUGAAUGAUGGGUUCUGACC, the “cell count fold change with erlotinib” value falls from -0.889 to -3.04.

Going from UGGAGAGAAAGGCAGUUCCUGA to AUGUAGGGCUAAAAGCCAUGGG, the “cell count fold change with erlotinib” value rises from -1.98 to -1.51.

Going from AAAGUGCUUCCUUUUAGAGGG to AACCCGUAGAUCCGAUCUUGUG, the “cell count fold change with erlotinib” value falls from -0.225 to -0.33.

Compared with UAGCUUAUCAGACUGAUGUUGA, CAGUGCAAUGAUGAAAGGGCAU is higher in “cell count fold change with erlotinib” value: -2.58 for the first, -2.17 for the second.

Going from CUUAUGCAAGAUUCCCUUCUAC to AGACCUGGCCCAGACCUCAGC, the “cell count fold change with erlotinib” value rises from -1.68 to 0.672.

Going from UUACAGUUGUUCAACCAGUUACU to CAACCUGGAGGACUCCAUGCUG, the “cell count fold change with erlotinib” value rises from -2.68 to -0.199.

First: AAGGAGCUUACAAUCUAGCUGGG
Second: CUAGUGAGGGACAGAACCAGGAUUC
The “cell count fold change with erlotinib” value of the first is higher: -0.343 for the first, -2.96 for the second.

First: AGGCGGAGACUUGGGCAAUUG
Second: UUCCUAUGCAUAUACUUCUUUG
The “cell count fold change with erlotinib” value of the first is lower: -3.29 for the first, -1.18 for the second.

Going from CAUCUUCCAGUACAGUGUUGGA to UGCCUGUCUACACUUGCUGUGC, the “cell count fold change with erlotinib” value falls from 0.0817 to -1.78.

Compared with UAAGGUGCAUCUAGUGCAGUUAG, AUCAUAGAGGAAAAUCCACGU is higher in “cell count fold change with erlotinib” value: -4.47 for the first, -3.73 for the second.

Going from UGGUGCGGAGAGGGCCCACAGUG to UAAGUGCUUCCAUGUUUUGGUGA, the “cell count fold change with erlotinib” value falls from -1.34 to -1.35.

Going from UGUCUUGCAGGCCGUCAUGCA to AGGUUGUCCGUGGUGAGUUCGCA, the “cell count fold change with erlotinib” value rises from -4.12 to -0.399.

Compared with UGACAACUAUGGAUGAGCUCU, AUUCCUAGAAAUUGUUCAUA is higher in “cell count fold change with erlotinib” value: -1.88 for the first, 0.458 for the second.

Compared with CCAGUAUUAACUGUGCUGCUGA, CAUCUUACCGGACAGUGCUGGA is higher in “cell count fold change with erlotinib” value: -1.92 for the first, -0.519 for the second.

Going from AACAUAGAGGAAAUUCCACGU to UCACAAUGCUGACACUCAAACUGCUGAC, the “cell count fold change with erlotinib” value falls from -1.33 to -1.47.

First: CGAAAACAGCAAUUACCUUUGC
Second: UGCUUCCUUUCAGAGGGU
The “cell count fold change with erlotinib” value of the first is higher: -2.67 for the first, -3.13 for the second.

First: GUGCAUUGCUGUUGCAUUGC
Second: AGACUUCCCAUUUGAAGGUGGC
The “cell count fold change with erlotinib” value of the first is lower: -2.3 for the first, -0.166 for the second.

Going from AAAGUGCUGCGACAUUUGAGCGU to AGCAGCAUUGUACAGGGCUAUGA, the “cell count fold change with erlotinib” value falls from 0.0776 to -0.577.

Going from ACUGUAGUAUGGGCACUUCCAG to UACGUCAUCGUUGUCAUCGUCA, the “cell count fold change with erlotinib” value rises from -1.17 to -0.419.

First: UGAGGGGCAGAGAGCGAGACUUU
Second: GAUUAGGGUGCUUAGCUGUUAA
The “cell count fold change with erlotinib” value of the first is higher: -0.476 for the first, -2.53 for the second.

Going from AGGGCUUAGCUGCUUGUGAGCA to AGUUUUGCAGGUUUGCAUCCAGC, the “cell count fold change with erlotinib” value rises from -3.74 to -0.535.

Compared with UACCCAGAGCAUGCAGUGUGAA, ACGGAUGUUUGAGCAUGUGCUA is higher in “cell count fold change with erlotinib” value: -2.53 for the first, -2.45 for the second.

Going from UAGUACCAGUACCUUGUGUUCA to UGGGCGUAUCUGUAUGCUA, the “cell count fold change with erlotinib” value rises from -4.15 to -0.274.

UGAGAUGAAGCACUGUAGCUC and GGUGCAGUGCUGCAUCUCUGGU are the same in “cell count fold change with erlotinib” value: -1.52 for the first, -1.52 for the second.

First: CUCUUGAGGGAAGCACUUUCUGU
Second: UUAUGGUUUGCCUGGGACUGAG
The “cell count fold change with erlotinib” value of the first is lower: -1.33 for the first, -0.886 for the second.

Going from UAGUGCAAUAUUGCUUAUAGGGU to AAGCCCUUACCCCAAAAAGCAU, the “cell count fold change with erlotinib” value rises from -3.19 to -1.75.

Going from UAAGUGCUUCCAUGCUU to CAACGGAAUCCCAAAAGCAGCUG, the “cell count fold change with erlotinib” value falls from -0.506 to -1.27.

Going from CAGCAGCAAUUCAUGUUUUGAA to UAAGGCACGCGGUGAAUGCC, the “cell count fold change with erlotinib” value rises from -3.25 to 0.453.

First: GGGCGACAAAGCAAGACUCUUUCUU
Second: UGUAAACAUCCUACACUCUCAGC
The “cell count fold change with erlotinib” value of the first is lower: -2.38 for the first, 0.35 for the second.

First: AAAAACUGUAAUUACUUUU
Second: UGAGACCUCUGGGUUCUGAGCU
The “cell count fold change with erlotinib” value of the first is higher: 0.031 for the first, -0.719 for the second.

Compared with AGCCUGGAAGCUGGAGCCUGCAGU, AGGCAGCGGGGUGUAGUGGAUA is higher in “cell count fold change with erlotinib” value: -0.167 for the first, 1.05 for the second.

First: UGGAGGAGAAGGAAGGUGAUG
Second: AAGUGAUCUAAAGGCCUACAU
The “cell count fold change with erlotinib” value of the first is higher: 0.943 for the first, -3.48 for the second.

Compared with UGUGCGCAGGGAGACCUCUCCC, CAAAGCGCUUCCCUUUGGAGC is higher in “cell count fold change with erlotinib” value: -1.77 for the first, -0.111 for the second.

Compared with CAAGCUCGUGUCUGUGGGUCCG, CAGUGCAAUAGUAUUGUCAAAGC is lower in “cell count fold change with erlotinib” value: -1.13 for the first, -2.72 for the second.

Going from GAGUGCCUUCUUUUGGAGCGUU to AGGUUACCCGAGCAACUUUGCAU, the “cell count fold change with erlotinib” value rises from -4.05 to -0.13.

First: UGUAGUGUUUCCUACUUUAUGGA
Second: UGGAAGACUAGUGAUUUUGUUGU
The “cell count fold change with erlotinib” value of the first is lower: -4.91 for the first, -2.71 for the second.

First: UGGAUUUCUUUGUGAAUCACCA
Second: CAGUUAUCACAGUGCUGAUGCU
The “cell count fold change with erlotinib” value of the first is lower: -4.07 for the first, -1.92 for the second.

Going from CUGCAAAGGGAAGCCCUUUC to AACUGGCCCUCAAAGUCCCGCU, the “cell count fold change with erlotinib” value rises from -3.43 to -0.145.

First: GUUGGAGGAUGAAAGUACGGAGUGAU
Second: UUGUACAUGGUAGGCUUUCAUU
The “cell count fold change with erlotinib” value of the first is higher: -2.24 for the first, -3.02 for the second.

Going from UUUGUGACCUGGUCCACUAACC to UUGCAUAUGUAGGAUGUCCCAU, the “cell count fold change with erlotinib” value rises from -2.85 to -1.06.

Compared with AGGACCUGCGGGACAAGAUUCUU, UAAGUGCUUCCAUGUUUCAGUGG is lower in “cell count fold change with erlotinib” value: 0.369 for the first, -0.141 for the second.

Compared with AGACCAUGGGUUCUCAUUGU, GAAAGCGCUUCCCUUUGCUGGA is higher in “cell count fold change with erlotinib” value: -1.65 for the first, -0.859 for the second.

First: AUCAUGAUGGGCUCCUCGGUGU
Second: CUCCAGAGGGAAGUACUUUCU
The “cell count fold change with erlotinib” value of the first is lower: -3.05 for the first, -1.13 for the second.

First: CCUCUGGGCCCUUCCUCCAG
Second: UGAGUGCCGGUGCCUGCCCUG
The “cell count fold change with erlotinib” value of the first is higher: 0.0835 for the first, -2.45 for the second.

Compared with UAACUGGUUGAACAACUGAACC, AGUUUUGCAUAGUUGCACUACA is lower in “cell count fold change with erlotinib” value: -0.919 for the first, -2.57 for the second.

Compared with UGAGCGCCUCGACGACAGAGCCG, UGCGGGGCUAGGGCUAACAGCA is higher in “cell count fold change with erlotinib” value: -1.23 for the first, 0.647 for the second.

First: AAGCAGCUGCCUCUGAGGC
Second: CAUCUUACUGGGCAGCAUUGGA
The “cell count fold change with erlotinib” value of the first is higher: 0.0583 for the first, -2.32 for the second.

Going from ACUUGUAUGCUAGCUCAGGUAG to AAAGUAGCUGUACCAUUUGC, the “cell count fold change with erlotinib” value falls from -0.236 to -2.51.

Compared with GUGAGGGCAUGCAGGCCUGGAUGGGG, AAAAGCUGGGUUGAGAGGGCGA is lower in “cell count fold change with erlotinib” value: -0.605 for the first, -2.14 for the second.

First: UCUCUGGGCCUGUGUCUUAGGC
Second: UACUUGGAAAGGCAUCAGUUG
The “cell count fold change with erlotinib” value of the first is higher: 0.808 for the first, -0.495 for the second.

First: GUAGAUUCUCCUUCUAUGAGUA
Second: UUUUGCACCUUUUGGAGUGAA
The “cell count fold change with erlotinib” value of the first is higher: -1.33 for the first, -3.02 for the second.

Compared with UGAGCCCCUGUGCCGCCCCCAG, UCGAGGAGCUCACAGUCUAGU is higher in “cell count fold change with erlotinib” value: -1.44 for the first, -0.737 for the second.

First: AGGGGUGGUGUUGGGACAGCUCCGU
Second: AAGGAGCUCACAGUCUAUUGAG
The “cell count fold change with erlotinib” value of the first is higher: -0.171 for the first, -1.13 for the second.

Compared with UUGUGCUUGAUCUAACCAUGU, CUGGAGAUAUGGAAGAGCUGUGU is higher in “cell count fold change with erlotinib” value: -1.88 for the first, -0.316 for the second.

CUCUAGAGGGAAGCACUUUCUC and GAAAGCGCUUCUCUUUAGAGG are the same in “cell count fold change with erlotinib” value: -0.525 for the first, -0.525 for the second.

First: AAAGUGCUUCUCUUUGGUGGGU
Second: UGAGCCCUGUCCUCCCGCAG
The “cell count fold change with erlotinib” value of the first is higher: 0.279 for the first, -3.68 for the second.

AAAGCGCUUCCCUUCAGAGUG and CUCUAGAGGGAAGCGCUUUCUG are the same in “cell count fold change with erlotinib” value: -1.78 for the first, -1.78 for the second.

Compared with CGUGUAUUUGACAAGCUGAGUU, AGUGCCUGAGGGAGUAAGAGCCC is higher in “cell count fold change with erlotinib” value: -5.21 for the first, -2.56 for the second.

Going from AUCACAUUGCCAGGGAUUUCC to GUGAAUUACCGAAGGGCCAUAA, the “cell count fold change with erlotinib” value falls from -1.61 to -2.07.

Going from UAGGUUAUCCGUGUUGCCUUCG to AGCUGGUGUUGUGAAUCAGGCCG, the “cell count fold change with erlotinib” value rises from -2.37 to -0.131.

Compared with UAGCAGCACAGAAAUAUUGGC, AUUCUGCAUUUUUAGCAAGUUC is higher in “cell count fold change with erlotinib” value: -1.13 for the first, -0.25 for the second.

Going from AAGUGUGCAGGGCACUGGU to CAGUGCAAUGUUAAAAGGGCAU, the “cell count fold change with erlotinib” value rises from -3.4 to -3.02.

Compared with ACUGCAUUAUGAGCACUUAAAG, GAUUGCUCUGCGUGCGGAAUCGAC is lower in “cell count fold change with erlotinib” value: -0.728 for the first, -1.68 for the second.

Going from GAAGGCGCUUCCCUUUAGAGCG to AGGAUGAGCAAAGAAAGUAGAUU, the “cell count fold change with erlotinib” value falls from -2.22 to -2.25.

Going from GCAUGGGUGGUUCAGUGG to CAGGGAGGUGAAUGUGAU, the “cell count fold change with erlotinib” value rises from 0.259 to 1.99.

Compared with AAACCUGUGUUGUUCAAGAGUC, UGGGUCUUUGCGGGCGAGAUGA is lower in “cell count fold change with erlotinib” value: -0.0774 for the first, -0.809 for the second.

Going from ACAAAGUGCUUCCCUUUAGAGUGU to CUGAAGUGAUGUGUAACUGAUCAG, the “cell count fold change with erlotinib” value falls from -0.659 to -3.44.

With AAUCAUACAGGGACAUCCAGUU the “cell count fold change with erlotinib” value was -1.33.
